Key:
mTOR = mTOR (Homo sapiens (Human), UniProt P42345); assay: mTOR activity assay (LanthaScreen); type: biochemical
Description: The enzymatic mTOR activity was measured using a LanthaScreen™ kinase activity assay (Invitrogen). The enzyme was purchased from Invitrogen (PV4754), as well as the GFP-labelled substrate (4EBP1-GFP; PV4759) and the Tb-antip4EBP1(pThr46) antibody (PV4757). The assay was performed in 50 Mm HEPES buffer, pH 7.5, containing 1.5 mM MnCl2, 10 mM MgCl2, 1 mM EGTA, 2.5 mM DTT and 0.01% Tween-20. The concentration of the assay components were the following: 0.24 nM mTOR kinase, 400 nM 4EBP1-GFP, […] and serial dilutions of the compound (inhibitor) to be evaluated. After 1 h incubation at room temperature, 20 mM EDTA was used to stop the reaction and terbium-labelled antibody (4 nM) added to detect phosphorylated product. The antibody associates with the phosphorylated product resulting in an increased TR-FRET value. The TR-FRET value (a dimensionless number) was calculated as the ratio of the acceptor signal (GFP, emission at 520 nm) to the donor signal (terbium, emission at 495 nm).

PI3K (p110α/p85α) = PI3K (p110α/p85α) (Homo sapiens (Human), UniProt P42336); assay: PI3K alpha activity assay (ADP Hunter Plus); type: biochemical; details: 50 μM ATP, 30 μM PIP2; read-out: PI3Kα IC50
Description: The kinase activity was measured by using the commercial ADP Hunter™ Plus assay available from DiscoveRx (#33-016), which is a homogeneous assay to measure the accumulation of ADP, a universal product of kinase activity. […] The reaction was carried out for 1 hour at 25° C. Reagent A and B were sequentially added to the wells and plates were incubated for 30 min at 37° C. Fluorescence counts were read in a Victor instrument (Perkin Elmer) with the recommended settings (544 and 580 nm as excitation and emission wavelengths, respectively).

DNA-PK = DNA-PK (Homo sapiens (Human), UniProt P78527); assay: DNAPK activity assay (ADP Hunter Plus); type: biochemical; details: 75 μM ATP
Description: The kinase activity was measured by using the commercial ADP Hunter™ Plus assay available from DiscoveRx (#90-0083), which is a homogeneous assay to measure the accumulation of ADP, a universal product of kinase activity. The enzyme, DNA-PK was purchased from Promega (#V5811). The assay was done following the manufacturer recommendations with slight modifications: Mainly the kinase buffer was replace by 15 mM HEPES, pH 7.5, 10 mM MgCl2, 20 mM NaCl, 1 mM EGTA, 0.1 mg/mL BGG, 0.02% Tween 20. The DNA-PK was assayed in a titration experiment to determine the optimal protein concentration for the inhibition assay. To calculate the […] of the Compounds, serial 1:3 dilutions of the compounds were added to the enzyme at a fixed concentration (2 U/μL). The enzyme was preincubated with the inhibitor and 200 μM DNA substrate and then ATP was added to a final 75 μM concentration. Reaction was carried out for 1 hour at 37° C. Reagent A and B were sequentially added to the wells and plates were incubated for 30 min at RT. Fluorescence counts were read in a EnVision instrument (Perkin Elmer) with the recommended settings (550 and 590 nm as excitation and emission wavelengths, respectively).

ATR = ATR (Homo sapiens (Human), UniProt Q13535); assay: Cellular ATR inhibition, western blot of CHK1(S345) phosphorylation in hydroxyurea treated cells; type: cell-based; details: HT29 cells
Description: In addition to the selective system described above, Example compounds presented here were screened for their ability to inhibit intracellular ATR using a western blot assay to detect phosphorylation of the ATR substrate CHK1(S345) in hydroxyurea treated cells. HT29 cells are plated at 500,000 cells per well in 6-well plates in RPMI media (Sigma R6504) supplemented with 10% foetal bovine serum (Sigma F7524), Penicillin/Streptomycin solution diluted 1:100 (Gibco 15070-063), and fungizone (Gibco, 15290-018), and allowed to adhere overnight at 37° C. in 5% CO2. Compounds are then added to the cell media from a final concentration of 10 μM in 3-fold serial dilutions and the cells are incubated at 37° C. in 5% CO2. After 15 min, hydroxyurea (Sigma H8627) is added to a final concentration of 2.5 mM. After 30 min of treatment with hydroxyurea, the cells are washed in PBS, lysed adding 50 μl of in protein lysis buffer (50 mM Tris pH 7.5, 150 mM NaCl, 1% IGEPAL CO-630 (Sigma, Ref. 542334-100G-A), Phospho Stop (Roche, Ref. 04906837001) and Complete Mini EDTA free (Roche, Ref. 11836170001)). The protein content of the lysates was determined by the modified method of Bradford (Sigma, Ref. B6916). The proteins were resolved by SDS-PAGE and transferred to nitrocellulose membrane (VWR International Eurolab, Ref. 732-4007). The membranes were incubated overnight at 4° C. with antibodies specific for total CHK1 (Santa Cruz Biotechnology, sc-8404), phosphoserine-345 CHK1 (Cell Signaling Technology #2348) they were washed and then incubated with IRDye800 conjugated anti-mouse (Pierce/Cultek, 35521) and Alexa Fluor 680 goat anti-rabbit IgG secondary antibodies (Invitrogen, A21076). The bands were visualized and quantified using an Odyssey infrared imaging system (Li-Cor Biosciences). The percentage of phosphorylated CHK1 vs total CHK1 in cells treated with hydroxyurea was taken as hundred percent of phosphorylation. The percentage of CHK1 phosphorylation is finally plotted against concentration for each compound and EC50s for intracellular ATR inhibition are calculated using ActivityBase from IDBS.

Chain of PI3K (p110α/p85α) (P42336 whole entry): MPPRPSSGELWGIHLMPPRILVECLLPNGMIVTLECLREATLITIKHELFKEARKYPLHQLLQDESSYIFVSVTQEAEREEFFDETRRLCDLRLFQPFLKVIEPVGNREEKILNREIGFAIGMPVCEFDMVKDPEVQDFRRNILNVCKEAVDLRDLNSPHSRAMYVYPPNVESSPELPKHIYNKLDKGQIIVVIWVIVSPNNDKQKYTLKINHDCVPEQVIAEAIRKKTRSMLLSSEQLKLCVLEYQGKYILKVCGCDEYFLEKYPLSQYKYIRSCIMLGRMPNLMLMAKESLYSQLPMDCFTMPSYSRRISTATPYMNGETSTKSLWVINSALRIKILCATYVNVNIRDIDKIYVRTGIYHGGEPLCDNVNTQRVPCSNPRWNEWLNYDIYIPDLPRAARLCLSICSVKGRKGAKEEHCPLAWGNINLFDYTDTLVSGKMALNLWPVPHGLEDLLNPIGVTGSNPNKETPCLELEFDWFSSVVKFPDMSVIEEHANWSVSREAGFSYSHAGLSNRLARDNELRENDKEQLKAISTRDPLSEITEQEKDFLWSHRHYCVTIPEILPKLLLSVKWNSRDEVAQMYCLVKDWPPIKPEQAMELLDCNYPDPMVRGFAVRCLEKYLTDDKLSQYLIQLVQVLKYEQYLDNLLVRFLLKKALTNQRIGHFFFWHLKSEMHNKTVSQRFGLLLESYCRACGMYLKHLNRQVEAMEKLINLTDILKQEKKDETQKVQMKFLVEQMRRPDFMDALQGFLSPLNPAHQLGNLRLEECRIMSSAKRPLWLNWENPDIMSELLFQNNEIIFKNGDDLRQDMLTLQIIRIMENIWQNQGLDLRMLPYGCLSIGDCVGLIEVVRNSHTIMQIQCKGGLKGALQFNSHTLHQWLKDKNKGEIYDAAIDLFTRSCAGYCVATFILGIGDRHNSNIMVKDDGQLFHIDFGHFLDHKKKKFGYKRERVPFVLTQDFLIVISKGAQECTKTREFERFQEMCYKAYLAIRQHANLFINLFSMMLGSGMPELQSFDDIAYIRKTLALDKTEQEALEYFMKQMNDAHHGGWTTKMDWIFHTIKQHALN
Chain of PI3K (p110α/p85α) (P27986 whole entry partner): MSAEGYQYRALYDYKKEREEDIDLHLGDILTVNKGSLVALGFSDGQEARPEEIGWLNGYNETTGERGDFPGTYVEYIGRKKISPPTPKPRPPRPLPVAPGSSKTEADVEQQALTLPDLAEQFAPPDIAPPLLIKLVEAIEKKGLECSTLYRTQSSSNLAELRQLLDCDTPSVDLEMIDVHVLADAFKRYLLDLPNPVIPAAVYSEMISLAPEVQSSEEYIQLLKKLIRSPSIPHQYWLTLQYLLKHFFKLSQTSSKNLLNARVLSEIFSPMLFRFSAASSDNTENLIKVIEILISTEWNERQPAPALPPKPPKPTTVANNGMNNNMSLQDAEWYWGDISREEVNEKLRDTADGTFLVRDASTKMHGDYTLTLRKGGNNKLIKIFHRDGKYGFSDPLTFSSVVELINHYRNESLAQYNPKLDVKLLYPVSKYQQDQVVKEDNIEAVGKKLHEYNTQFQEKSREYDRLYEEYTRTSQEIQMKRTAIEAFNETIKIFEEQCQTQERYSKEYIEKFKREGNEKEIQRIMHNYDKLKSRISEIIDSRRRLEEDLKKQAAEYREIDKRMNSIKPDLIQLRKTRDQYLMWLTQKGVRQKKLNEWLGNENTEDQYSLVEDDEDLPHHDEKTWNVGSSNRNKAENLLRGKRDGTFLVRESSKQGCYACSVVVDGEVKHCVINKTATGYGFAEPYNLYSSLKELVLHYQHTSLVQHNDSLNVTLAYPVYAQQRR
Chain of mTOR (P42345 1360-2549): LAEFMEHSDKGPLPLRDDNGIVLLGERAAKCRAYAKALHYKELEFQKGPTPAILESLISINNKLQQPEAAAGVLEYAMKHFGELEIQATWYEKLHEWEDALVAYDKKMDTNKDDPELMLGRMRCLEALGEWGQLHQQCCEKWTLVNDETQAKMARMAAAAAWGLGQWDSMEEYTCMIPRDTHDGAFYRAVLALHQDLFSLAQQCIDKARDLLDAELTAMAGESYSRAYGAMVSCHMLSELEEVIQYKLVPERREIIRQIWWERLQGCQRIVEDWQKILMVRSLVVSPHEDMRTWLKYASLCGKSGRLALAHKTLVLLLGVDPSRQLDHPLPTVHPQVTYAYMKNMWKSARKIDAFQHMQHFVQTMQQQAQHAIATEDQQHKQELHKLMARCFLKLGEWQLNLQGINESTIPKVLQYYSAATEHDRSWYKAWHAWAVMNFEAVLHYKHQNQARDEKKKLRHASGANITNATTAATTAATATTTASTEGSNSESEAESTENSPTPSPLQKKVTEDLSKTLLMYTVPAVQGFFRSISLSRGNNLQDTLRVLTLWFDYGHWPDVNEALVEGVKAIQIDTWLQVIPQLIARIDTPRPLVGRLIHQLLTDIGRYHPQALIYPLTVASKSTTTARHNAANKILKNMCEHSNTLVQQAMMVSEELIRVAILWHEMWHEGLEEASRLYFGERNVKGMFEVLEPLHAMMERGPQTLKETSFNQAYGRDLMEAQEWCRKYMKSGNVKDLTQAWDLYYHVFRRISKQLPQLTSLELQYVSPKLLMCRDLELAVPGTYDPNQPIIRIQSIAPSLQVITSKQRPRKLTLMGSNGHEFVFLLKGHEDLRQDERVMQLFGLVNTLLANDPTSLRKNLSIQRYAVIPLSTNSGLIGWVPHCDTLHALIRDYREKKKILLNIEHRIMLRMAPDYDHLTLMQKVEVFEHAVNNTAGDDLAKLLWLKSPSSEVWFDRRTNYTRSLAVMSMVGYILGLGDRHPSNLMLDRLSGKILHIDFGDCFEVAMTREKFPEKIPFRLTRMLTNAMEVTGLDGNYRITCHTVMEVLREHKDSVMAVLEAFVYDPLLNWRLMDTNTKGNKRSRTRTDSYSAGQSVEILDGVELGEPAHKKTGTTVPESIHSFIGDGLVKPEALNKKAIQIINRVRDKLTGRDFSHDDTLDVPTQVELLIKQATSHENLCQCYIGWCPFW

Cc1cc2c(-c3nc4c(c(C5(S(C)(=O)=O)CC5)n3)OC[C@@H]3COCCN43)cccc2[nH]1 [Example 109]
IC50 (mTOR): 224 nM | IC50 (PI3K (p110α/p85α)): 5.69 µM | IC50 (DNA-PK): 10 µM | EC50 (ATR; hydroxyurea 2.5 mM): 100 to 1000 nM

CC(C)(c1nc(-c2c(F)ccc3[nH]ccc23)nc2c1OC[C@H]1COCCN21)S(C)(=O)=O [Example 26]
IC50 (mTOR): 10000 nM | IC50 (PI3K (p110α/p85α)): 2.7 µM | IC50 (DNA-PK): 10 µM | EC50 (ATR; hydroxyurea 2.5 mM): > 1000 nM

CC(C)(c1nc(-c2cccc3[nH]ccc23)nc2c1OC[C@@H]1COCCN21)S(=O)(=O)C1CC1 [Example 61]
IC50 (mTOR): 228 nM | IC50 (PI3K (p110α/p85α)): 3.22 µM | IC50 (DNA-PK): 10 µM | EC50 (ATR; hydroxyurea 2.5 mM): 100 to 1000 nM

CNc1nc2ccc(Cl)cc2n1-c1nc2c(c(C3(S(C)(=O)=O)CC3)n1)OC[C@@H]1COCCN21 [Example 87]
IC50 (mTOR): 10000 nM | IC50 (PI3K (p110α/p85α)): 50 µM | IC50 (DNA-PK): 0.21 µM | EC50 (ATR; hydroxyurea […]): > 1000 nM

CNc1nc2cc(F)ccc2n1-c1nc2c(c(C3(S(C)(=O)=O)CCC3)n1)OC[C@@H]1COCCN21 [Example 96]
IC50 (mTOR): 6080 nM | IC50 (PI3K (p110α/p85α)): 50 µM | IC50 (DNA-PK): 10 µM | EC50 (ATR; hydroxyurea […]): 100 to 1000 nM

CNc1nc2ccc(F)cc2n1-c1nc2c(c(C3(S(C)(=O)=O)CCC3)n1)OC[C@@H]1COCCN21 [Example 97]
IC50 (mTOR): 6800 nM | IC50 (PI3K (p110α/p85α)): 50 µM | IC50 (DNA-PK): 6.8 µM | EC50 (ATR; hydroxyurea […]): 100 to 1000 nM

CC(C)(c1nc(-c2cc(C(F)(F)F)cc3[nH]ccc23)nc2c1OC[C@@H]1COCCN21)S(C)(=O)=O [Example 101]
IC50 (mTOR): 227 nM | IC50 (PI3K (p110α/p85α)): 12.6 µM | IC50 (DNA-PK): 10 µM | EC50 (ATR; hydroxyurea 2.5 mM): 100 to 1000 nM

CC(C)(c1nc(-c2ccc(F)c3[nH]ccc23)nc2c1OC[C@@H]1COCCN21)S(C)(=O)=O [Example 102]
IC50 (mTOR): 1820 nM | IC50 (PI3K (p110α/p85α)): 50 µM | IC50 (DNA-PK): 0.1 µM | EC50 (ATR; hydroxyurea 2.5 mM): > 1000 nM

CC(C)(c1nc(-n2c(N)nc3ccccc32)nc2c1OC[C@@H]1COCCN21)S(C)(=O)=O [Example 70]
IC50 (mTOR): 226 nM | IC50 (PI3K (p110α/p85α)): 0.87 µM | IC50 (DNA-PK): 0.741 µM | EC50 (ATR; hydroxyurea […]): 100 to 1000 nM

CNc1nc2ccc(F)cc2n1-c1nc2c(c(C(C)(C)S(C)(=O)=O)n1)OC[C@@H]1COCCN21 [Example 83]
IC50 (mTOR): 2470 nM | IC50 (PI3K (p110α/p85α)): 12.2 µM | IC50 (DNA-PK): 3.11 µM | EC50 (ATR; hydroxyurea […]): 100 to 1000 nM

COc1cc(-c2nc3c(c(C(C)(C)O)n2)OC[C@@H]2COCCN32)c2cc[nH]c2c1 [Example 46]
IC50 (mTOR): 38 nM | IC50 (PI3K (p110α/p85α)): 0.48 µM | IC50 (DNA-PK): 2.82 µM | EC50 (ATR; hydroxyurea 2.5 mM): 100 to 1000 nM

COc1cc(-c2nc3c(c(C4(S(C)(=O)=O)CCOCC4)n2)OC[C@@H]2COCCN32)c2cc[nH]c2c1 [Example 29]
IC50 (mTOR): 435 nM | IC50 (PI3K (p110α/p85α)): 3.8 µM | IC50 (DNA-PK): 25 µM | EC50 (ATR; hydroxyurea 2.5 mM): < 100 nM

CC(C)(c1nc(-c2cccc3[nH]ccc23)nc2c1OC[C@H]1COCCN21)S(C)(=O)=O [Example 15]
IC50 (mTOR): 851 nM | IC50 (PI3K (p110α/p85α)): 1.1 µM | IC50 (DNA-PK): 2.86 µM | EC50 (ATR; hydroxyurea 2.5 mM): 100 to 1000 nM

COc1cc(-c2nc3c(c(C(C)(C)S(C)(=O)=O)n2)OC[C@@H]2COCCN32)c2cc[nH]c2c1 [Example 72]
IC50 (mTOR): 45.3 nM | IC50 (PI3K (p110α/p85α)): 0.82 µM | IC50 (DNA-PK): 1.6 µM | EC50 (ATR; hydroxyurea 2.5 mM): 100 to 1000 nM

CC(C)(c1nc(-n2c(N3CCOCC3)nc3ccccc32)nc2c1OC[C@@H]1COCCN21)S(C)(=O)=O [Example 73]
IC50 (mTOR): 10000 nM | IC50 (PI3K (p110α/p85α)): 50 µM | IC50 (DNA-PK): 10 µM | EC50 (ATR; hydroxyurea […]): > 1000 nM

CS(=O)(=O)C1(c2nc(-c3cc(F)cc4[nH]ccc34)nc3c2OC[C@@H]2COCCN32)CCC1 [Example 77]
IC50 (mTOR): > 10000 nM | IC50 (PI3K (p110α/p85α)): 5.36 µM | IC50 (DNA-PK): 10 µM | EC50 (ATR; hydroxyurea 2.5 mM): < 100 nM

CS(=O)(=O)C1(c2nc(-c3cc(F)cc4[nH]ccc34)nc3c2OC[C@@H]2COCCN32)CCOCC1 [Example 28]
IC50 (mTOR): 785 nM | IC50 (PI3K (p110α/p85α)): 4.7 µM | IC50 (DNA-PK): 25 µM | EC50 (ATR; hydroxyurea 2.5 mM): < 100 nM

Cc1cc2c(-c3nc4c(c(C5(S(C)(=O)=O)CCC5)n3)OC[C@@H]3COCCN43)cccc2[nH]1 [Example 93]
IC50 (mTOR): 117 nM | IC50 (PI3K (p110α/p85α)): 7.44 µM | IC50 (DNA-PK): 10 µM | EC50 (ATR; hydroxyurea 2.5 mM): 100 to 1000 nM

CC(C)(c1nc(-c2cc(F)cc3[nH]ccc23)nc2c1OC[C@@H]1COCCN21)S(C)(=O)=O [Example 71]
IC50 (mTOR): 99.3 nM | IC50 (PI3K (p110α/p85α)): 1.08 µM | IC50 (DNA-PK): 10 µM | EC50 (ATR; hydroxyurea 2.5 mM): < 100 nM

CS(=O)(=O)C1(c2nc(-c3cccc4[nH]ccc34)nc3c2OCC[C@H]2COCCN32)CCOCC1 [Example 23]
IC50 (mTOR): 10000 nM | IC50 (PI3K (p110α/p85α)): 50 µM | IC50 (DNA-PK): 6.37 µM | EC50 (ATR; hydroxyurea 2.5 mM): 100 to 1000 nM

CNc1nc2ccccc2n1-c1nc2c(c(C(C)(C)S(C)(=O)=O)n1)OCC[C@@H]1COCCN21 [Example 62]
IC50 (mTOR): 6600 nM | IC50 (PI3K (p110α/p85α)): 16.2 µM | IC50 (DNA-PK): 10 µM | EC50 (ATR; hydroxyurea 2.5 mM): 100 to 1000 nM

CS(=O)(=O)C1(c2nc(-c3cc(C(F)(F)F)cc4[nH]ccc34)nc3c2OC[C@@H]2COCCN32)CCC1 [Example 112]
IC50 (mTOR): 235 nM | IC50 (PI3K (p110α/p85α)): 19.5 µM | IC50 (DNA-PK): 10 µM | EC50 (ATR; hydroxyurea 2.5 mM): 100 to 1000 nM

CC(C)(O)c1nc(-c2cccc3[nH]ccc23)nc2c1OC[C@@H]1COCCN21 [Example 44]
IC50 (mTOR): 44 nM | IC50 (PI3K (p110α/p85α)): 1.18 µM | IC50 (DNA-PK): 3.06 µM | EC50 (ATR; hydroxyurea 2.5 mM): 100 to 1000 nM

CS(=O)(=O)C1(c2nc(-c3ccc(F)c4[nH]ccc34)nc3c2OC[C@@H]2COCCN32)CC1 [Example 110]
IC50 (mTOR): 10000 nM | IC50 (PI3K (p110α/p85α)): 50 µM | IC50 (DNA-PK): 10 µM | EC50 (ATR; hydroxyurea 2.5 mM): > 1000 nM

From patent US9453031B2, “Chemical entities” (Fundación Centro Nacional de Investigaciones Oncológicas …, priority 2013, dated 2016)
